Assay [1] addresses T1, human recombinant GABAAR containing α5β3γ2 subunits (benzodiazepine site) (Homo sapiens, UniProt P18507+P31644).
T1 construct: expressed in transfected cells; host or cells: mouse L(tk−) cells, dexamethasone-inducible vector pMSGneo
Kind of assay: In vitro radioligand binding assay (α5-GABAAR Ki). The settings on record: inhibition of [3H]Ro15-1788 binding, membranes of L(tk−) cells expressing human α5β3γ2; read-out: α5-GABAAR Ki. An outline of the steps: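 Membranes from mouse L(tk^−) cells stably expressing human α5β3γ2 GABAAR incubated 1 h at 4° C with 4 nM [^3H]Ro15-1788 and test compound; nonspecific binding with 1 μM TP003. Filter-bound radioactivity counted; Ki from IC50 by Cheng-Prusoff using measured Kd.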

Assay [2] deals with T2, human α5β3γ2 GABAARs in mouse L(tk−) cells (Homo sapiens, UniProt P18507+P31644).
T2 construct: expressed in transfected cells; host or cells: mouse L(tk−) cells, dexamethasone-inducible vector pMSGneo
T2 sequence (P31644 32-462): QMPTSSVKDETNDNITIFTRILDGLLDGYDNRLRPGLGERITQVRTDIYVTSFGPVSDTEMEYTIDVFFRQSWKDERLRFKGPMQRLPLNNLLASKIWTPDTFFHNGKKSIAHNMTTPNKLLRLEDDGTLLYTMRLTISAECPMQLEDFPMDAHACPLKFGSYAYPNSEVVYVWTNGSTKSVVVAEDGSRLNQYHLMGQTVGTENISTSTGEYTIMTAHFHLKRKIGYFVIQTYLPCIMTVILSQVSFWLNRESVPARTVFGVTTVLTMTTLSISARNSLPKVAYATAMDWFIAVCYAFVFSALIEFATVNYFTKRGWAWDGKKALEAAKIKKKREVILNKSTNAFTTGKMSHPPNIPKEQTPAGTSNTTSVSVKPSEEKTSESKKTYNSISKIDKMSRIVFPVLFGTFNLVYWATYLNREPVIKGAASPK
T2 sequence (P28472 26-473 partner): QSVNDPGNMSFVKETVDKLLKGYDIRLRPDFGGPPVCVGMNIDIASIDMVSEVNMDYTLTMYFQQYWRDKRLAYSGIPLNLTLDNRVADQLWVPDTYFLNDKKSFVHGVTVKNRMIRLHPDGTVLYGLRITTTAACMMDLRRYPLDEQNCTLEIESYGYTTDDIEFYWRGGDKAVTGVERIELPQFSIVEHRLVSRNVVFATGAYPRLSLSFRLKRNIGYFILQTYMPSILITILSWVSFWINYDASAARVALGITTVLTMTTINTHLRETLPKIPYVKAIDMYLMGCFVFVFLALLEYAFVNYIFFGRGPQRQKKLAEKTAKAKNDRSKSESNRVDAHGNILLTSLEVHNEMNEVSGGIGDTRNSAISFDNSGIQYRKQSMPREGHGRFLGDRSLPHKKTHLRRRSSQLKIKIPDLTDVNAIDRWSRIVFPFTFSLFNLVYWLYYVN
T2 sequence (P18507 40-475): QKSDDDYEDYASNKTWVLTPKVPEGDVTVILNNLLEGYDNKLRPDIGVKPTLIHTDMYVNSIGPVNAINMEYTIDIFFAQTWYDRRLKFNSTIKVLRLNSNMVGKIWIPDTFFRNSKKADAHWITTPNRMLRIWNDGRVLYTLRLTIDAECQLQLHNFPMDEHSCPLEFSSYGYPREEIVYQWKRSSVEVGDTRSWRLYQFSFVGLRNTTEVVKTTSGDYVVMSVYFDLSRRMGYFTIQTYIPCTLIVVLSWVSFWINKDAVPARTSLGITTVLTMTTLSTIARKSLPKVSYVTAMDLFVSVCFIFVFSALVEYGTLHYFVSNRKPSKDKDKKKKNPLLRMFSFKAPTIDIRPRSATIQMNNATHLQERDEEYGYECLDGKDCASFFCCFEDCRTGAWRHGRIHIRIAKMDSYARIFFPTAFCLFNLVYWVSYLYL
Put plainly: In vitro electrophysiological recording assay (α5-GABAAR relative efficacy), QPatch. It counts as cell-based. The settings on record: GABA EC10-20. The procedure, abridged:
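Whole-cell QPatch recordings at 20-22° C, −65 mV holding, in dexamethasone-induced (1 μM, 24 h) L(tk−) cells. Compound pre-applied ≥1 min, then co-applied with GABA EC10-20; percentage change in leak-corrected peak current, taken at ≥100× Ki, normalised to DMCM efficacy; 0.1% DMSO final.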
In general terms: In patch-clamp work, channel activity is measured electrically.

T1 sequence (P31644 32-462): as the sequence (P31644 32-462) above
T1 sequence (P28472 26-473 partner): as the sequence (P28472 26-473 partner) above
T1 sequence (P18507 40-475): as the sequence (P18507 40-475) above

As a reminder, the Ki is the dissociation constant of the complex between target and ligand, obtained from inhibition or displacement. Consider `COc1ccc(-c2cnc(NC(=O)c3c(-c4ccccc4)noc3C)c(OC)n2)cn1` [Example 71, N-[3-Methoxy-5-(6-methoxy-3-pyridyl)pyrazin-2-yl]-5-methyl-3-phenyl-isoxazole-4-carboxamide], for which the inhibitory constant (Ki) in assay [1] came out at 2.8 nM. Besides, the “α5-GABAAR Relative Efficacy (to DMCM), Qpatch” value (“α5-GABAAR Relative Efficacy” for short) in assay [2] (Conc 0.3 μM) is listed as −0.94.

Turning to `COc1ncc(-c2cnc(NC(=O)c3c(-c4ccccc4)noc3C)c(OC)n2)cn1` [Example 72, N-[3-Methoxy-5-(2-methoxypyrimidin-5-yl)pyrazin-2-yl]-5-methyl-3-phenyl-isoxazole-4-carboxamide], the Ki in assay [1] is 2 nM. In assay [2] (Conc 0.3 μM), the “α5-GABAAR Relative Efficacy” value was −1.04.

With `CNC(=O)c1ncc(-c2ccc(NC(=O)c3c(-c4ccccc4)noc3C)c(OC)n2)cn1` [Example 75, N-[2-Methoxy-6-[2-(methylcarbamoyl)pyrimidin-5-yl]-3-pyridyl]-5-methyl-3-phenyl-isoxazole-4-carboxamide], the Ki in assay [1] was determined as 0.6 nM. The “α5-GABAAR Relative Efficacy” value in assay [2] (Conc 0.1 μM) is on record as −0.92.

In the case of `COc1nc(-c2ccc3[nH]c(=O)n(C)c3c2)ccc1NC(=O)c1c(-c2ccccc2)noc1C` [Example 77, N-(2-Methoxy-6-(3-methyl-2-oxo-2,3-dihydro-1H-benzo[d]imidazol-5-yl)pyridin-3-yl)-5-methyl-3-phenylisoxazole-4-carboxamide], the Ki in assay [1] turned out to be 16.1 nM. For the same compound, the “α5-GABAAR Relative Efficacy” value in assay [2] (Conc 3 μM) was −0.22.

`COc1nc(-c2cnccc2N)ccc1NC(=O)c1c(-c2ccccc2)noc1C` [Example 78, N-(4′-Amino-6-methoxy-[2,3′-bipyridin]-5-yl)-5-methyl-3-phenylisoxazole-4-carboxamide]: in assay [1], the Ki is 1 nM. The “α5-GABAAR Relative Efficacy” value in assay [2] (Conc 0.1 μM) is listed as −0.42.

On to `COc1nc(-c2cnc3n2CCOC3)ccc1NC(=O)c1c(-c2ccccc2)noc1C` [Example 79, N-[6-(6,8-Dihydro-5H-imidazo[2,1-c][1,4]oxazin-3-yl)-2-methoxy-3-pyridyl]-5-methyl-3-phenyl-isoxazole-4-carboxamide], for which the Ki in assay [1] was determined as 0.8 nM. Besides, in assay [2] (Conc 0.1 μM), the “α5-GABAAR Relative Efficacy” value was −0.76.

Take `CCn1nc(-c2nccs2)cc1-c1ccc(NC(=O)c2c(-c3ccccc3)noc2C)c(OC)n1` [Example 80, N-(6-(1-Ethyl-3-(thiazol-2-yl)-1H-pyrazol-5-yl)-2-methoxypyridin-3-yl)-5-methyl-3-phenylisoxazole-4-carboxamide]: the Ki in assay [1] is 19.5 nM. Also, the “α5-GABAAR Relative Efficacy” value in assay [2] (Conc 3 μM) is recorded as −0.65.

On to `COc1nc(-c2cc(C)nc(N)c2)ccc1NC(=O)c1c(-c2ccccc2)noc1C` [Example 81, N-(2′-Amino-6-methoxy-6′-methyl-[2,4′-bipyridin]-5-yl)-5-methyl-3-phenylisoxazole-4-carboxamide], for which the Ki in assay [1] came to 8 nM. In addition, the “α5-GABAAR Relative Efficacy” value in assay [2] (Conc 1 μM) is −1.26.

For `COc1nc(-c2ccnc(N(C)C)c2)ccc1NC(=O)c1c(-c2ccccc2)noc1C` [Example 82, N-(2′-(Dimethylamino)-6-methoxy-[2,4′-bipyridin]-5-yl)-5-methyl-3-phenyl-isoxazole-4-carboxamide], the Ki in assay [1] worked out at 7.9 nM. For the same compound, the “α5-GABAAR Relative Efficacy” value in assay [2] (Conc 1 μM) is −0.65.

For the compound `COc1nc(-c2cnn(C3CCCCO3)n2)ccc1NC(=O)c1c(-c2ccccc2)noc1C` (stereo not drawn) [Example 84, N-(2-Methoxy-6-(2-(tetrahydro-2H-pyran-2-yl)-2H-1,2,3-triazol-4-yl)pyridin-3-yl)-5-methyl-3-phenylisoxazole-4-carboxamide], the Ki in assay [1] amounted to 10.7 nM. Moreover, in assay [2] (Conc 3 μM), the “α5-GABAAR Relative Efficacy” value was −0.51.

For `COc1nc(-c2ccncc2N)ccc1NC(=O)c1c(-c2ccccc2)noc1C` [Example 86, N-(3′-Amino-6-methoxy-[2,4′-bipyridin]-5-yl)-5-methyl-3-phenylisoxazole-4-carboxamide], in assay [1], the Ki is 3.2 nM. Further, the “α5-GABAAR Relative Efficacy” value in assay [2] (Conc 1 μM) is −0.65.

In the case of `COc1nc(-c2cncc(-n3cccn3)c2)ccc1NC(=O)c1c(-c2ccccc2)noc1C` [Example 90, N-(6-Methoxy-5′-(1H-pyrazol-1-yl)-[2,3′-bipyridin]-5-yl)-5-methyl-3-phenylisoxazole-4-carboxamide], in assay [1], the Ki is 3.4 nM. Also, the “α5-GABAAR Relative Efficacy” value in assay [2] (Conc 1 μM) is on record as −0.58.

Take `COc1nc(-c2ccc3nnn(C)c3c2)ccc1NC(=O)c1c(-c2ccccc2)noc1C` [Example 91, N-(2-Methoxy-6-(1-methyl-1H-benzo[d] [1,2,3]triazol-6-yl)pyridin-3-yl)-5-methyl-3-phenylisoxazole-4-carboxamide]: the Ki in assay [1] came to 10.1 nM. The “α5-GABAAR Relative Efficacy” value in assay [2] (Conc 3 μM) is −0.45.

For the compound `COc1nc(-c2cnc(N3CCCC(CO)C3)nc2)ccc1NC(=O)c1c(-c2ccccc2)noc1C` (stereo not drawn) [Example 92, N-(6-(2-(3-(Hydroxymethyl)piperidin-1-yl)pyrimidin-5-yl)-2-methoxypyridin-3-yl)-5-methyl-3-phenylisoxazole-4-carboxamide], in assay [1], the Ki was 3 nM. For the same compound, the “α5-GABAAR Relative Efficacy” value in assay [2] (Conc 0.3 μM) is reported as −0.66.

For `COc1nc(-c2cncnc2OC)ccc1NC(=O)c1c(-c2ccccc2)noc1C` [Example 93, N-(2-Methoxy-6-(4-methoxypyrimidin-5-yl)pyridin-3-yl)-5-methyl-3-phenyl-isoxazole-4-carboxamide], in assay [1], the Ki came out at 8.2 nM. Further, the “α5-GABAAR Relative Efficacy” value in assay [2] (Conc 1 μM) is −0.73.

On to `COc1nc(-c2cncs2)ccc1NC(=O)c1c(-c2ccccc2)noc1C` [Example 94, N-(2-Methoxy-6-(thiazol-5-yl)pyridin-3-yl)-5-methyl-3-phenylisoxazole-4-carboxamide], for which the Ki in assay [1] worked out at 21.7 nM. In assay [2] (Conc 3 μM), the “α5-GABAAR Relative Efficacy” value was −0.50.

For the compound `COc1nc(-c2cncc(C(=O)N(C)C)c2)ccc1NC(=O)c1c(-c2ccccc2)noc1C` [Example 95, N-(5′-(Dimethylcarbamoyl)-6-methoxy-[2,3′-bipyridin]-5-yl)-5-methyl-3-phenyl-isoxazole-4-carboxamide], in assay [1], the Ki came to 1.4 nM. Further, the “α5-GABAAR Relative Efficacy” value in assay [2] (Conc 0.3 μM) is recorded as −0.66.

Turning to `COc1nc(-c2ccc3nncn3c2)ccc1NC(=O)c1c(-c2ccccc2)noc1C` [Example 96, N-(6-([1,2,4] Triazolo[4,3-a]pyridin-6-yl)-2-methoxypyridin-3-yl)-5-methyl-3-phenylisoxazole-4-carboxamide], the Ki in assay [1] stood at 1.9 nM. Besides, the “α5-GABAAR Relative Efficacy” value in assay [2] (Conc 0.3 μM) is given as −0.52.

Regarding `COc1nc(-c2cccc3c2CNC3=O)ccc1NC(=O)c1c(-c2ccccc2)noc1C` [Example 97, N-(2-Methoxy-6-(1-oxoisoindolin-4-yl)pyridin-3-yl)-5-methyl-3-phenylisoxazole-4-carboxamide], the Ki in assay [1] turned out to be 19.1 nM. The “α5-GABAAR Relative Efficacy” value in assay [2] (Conc 3 μM) is given as −0.67.

For the compound `COc1nc(-c2ccc(N3CC[C@@H](O)C3)nc2)ccc1NC(=O)c1c(-c2ccccc2)noc1C` [Example 99, (R)—N-(6′-(3-Hydroxypyrrolidin-1-yl)-6-methoxy-[2,3′-bipyridin]-5-yl)-5-methyl-3-phenylisoxazole-4-carboxamide], in assay [1], the Ki amounted to 6.7 nM. Besides, the “α5-GABAAR Relative Efficacy” value in assay [2] (Conc 1 μM) is −0.70.

In the case of `COc1nc(-c2cnc3cnn(C)c3c2)ccc1NC(=O)c1c(-c2ccccc2)noc1C` [Example 100, N-(2-Methoxy-6-(1-methyl-1H-pyrazolo[4,3-b]pyridin-6-yl)pyridin-3-yl)-5-methyl-3-phenylisoxazole-4-carboxamide], in assay [1], the Ki came to 3 nM. In assay [2] (Conc 0.3 μM), the “α5-GABAAR Relative Efficacy” value was −0.72.
